Each block holds one compound with its values, some of them ahead of it.
Molecular target: KDM3B (Homo sapiens, UniProt Q7LBC6)
Assay: KDM3B AlphaScreen assay (Table 1)
Assay type: biochemical
Description: AlphaScreen assays were performed in 384-well plate format using white AlphaPlate™ (PerkinElmer®, USA), and transfer of pre-diluted compound (100 nL) was performed using a Janus® Workstation (PerkinElmer®, USA). All subsequent steps were carried out in assay buffer (50 mM 4-(2-hydroxyethyl)-1-piperazineethanesulfonic acid (HEPES), pH 7.5, 0.1% (wt/vol) bovine serum albumin (BSA) and 0.01% (vol/vol) Tween®20). In brief, 10 μL of assay buffer containing demethylase enzyme (2 nM Final) was pre-incubated for 15 min with dilutions of compound. The enzyme reaction was initiated by the addition of substrate (5 μL) consisting of L-ascorbic acid (100 μM Final), […] (OG) (5 μM Final), FAS (10 μM Final) and histone H3(1-21)K9Me3-GGK Biotin (100 nM Final). The enzyme reaction was allowed to proceed for 30 minutes and was stopped by the addition of 5 μL of assay buffer containing ethylenediaminetetraacetic acid (EDTA) (40 mM) and NaCl (1,200 mM). The final concentration of DMSO was 1%. Streptavidin donor beads (0.08 mg/ml) and protein-A-conjugated acceptor beads (0.08 mg/ml) were preincubated for 1 h with antibody to methyl mark (300 ng/mL Final), and the presence of histone H3 product methyl mark was detected using the preincubated AlphaScreen™ beads (5 μL). […] Data were normalized to the (no-enzyme) control, and the IC50 values were determined via nonlinear regression curve fit using GraphPad Prism 7.
Data are expressed as IC50 (μM).

Chain of KDM3B (Q7LBC6 whole entry, species assumed): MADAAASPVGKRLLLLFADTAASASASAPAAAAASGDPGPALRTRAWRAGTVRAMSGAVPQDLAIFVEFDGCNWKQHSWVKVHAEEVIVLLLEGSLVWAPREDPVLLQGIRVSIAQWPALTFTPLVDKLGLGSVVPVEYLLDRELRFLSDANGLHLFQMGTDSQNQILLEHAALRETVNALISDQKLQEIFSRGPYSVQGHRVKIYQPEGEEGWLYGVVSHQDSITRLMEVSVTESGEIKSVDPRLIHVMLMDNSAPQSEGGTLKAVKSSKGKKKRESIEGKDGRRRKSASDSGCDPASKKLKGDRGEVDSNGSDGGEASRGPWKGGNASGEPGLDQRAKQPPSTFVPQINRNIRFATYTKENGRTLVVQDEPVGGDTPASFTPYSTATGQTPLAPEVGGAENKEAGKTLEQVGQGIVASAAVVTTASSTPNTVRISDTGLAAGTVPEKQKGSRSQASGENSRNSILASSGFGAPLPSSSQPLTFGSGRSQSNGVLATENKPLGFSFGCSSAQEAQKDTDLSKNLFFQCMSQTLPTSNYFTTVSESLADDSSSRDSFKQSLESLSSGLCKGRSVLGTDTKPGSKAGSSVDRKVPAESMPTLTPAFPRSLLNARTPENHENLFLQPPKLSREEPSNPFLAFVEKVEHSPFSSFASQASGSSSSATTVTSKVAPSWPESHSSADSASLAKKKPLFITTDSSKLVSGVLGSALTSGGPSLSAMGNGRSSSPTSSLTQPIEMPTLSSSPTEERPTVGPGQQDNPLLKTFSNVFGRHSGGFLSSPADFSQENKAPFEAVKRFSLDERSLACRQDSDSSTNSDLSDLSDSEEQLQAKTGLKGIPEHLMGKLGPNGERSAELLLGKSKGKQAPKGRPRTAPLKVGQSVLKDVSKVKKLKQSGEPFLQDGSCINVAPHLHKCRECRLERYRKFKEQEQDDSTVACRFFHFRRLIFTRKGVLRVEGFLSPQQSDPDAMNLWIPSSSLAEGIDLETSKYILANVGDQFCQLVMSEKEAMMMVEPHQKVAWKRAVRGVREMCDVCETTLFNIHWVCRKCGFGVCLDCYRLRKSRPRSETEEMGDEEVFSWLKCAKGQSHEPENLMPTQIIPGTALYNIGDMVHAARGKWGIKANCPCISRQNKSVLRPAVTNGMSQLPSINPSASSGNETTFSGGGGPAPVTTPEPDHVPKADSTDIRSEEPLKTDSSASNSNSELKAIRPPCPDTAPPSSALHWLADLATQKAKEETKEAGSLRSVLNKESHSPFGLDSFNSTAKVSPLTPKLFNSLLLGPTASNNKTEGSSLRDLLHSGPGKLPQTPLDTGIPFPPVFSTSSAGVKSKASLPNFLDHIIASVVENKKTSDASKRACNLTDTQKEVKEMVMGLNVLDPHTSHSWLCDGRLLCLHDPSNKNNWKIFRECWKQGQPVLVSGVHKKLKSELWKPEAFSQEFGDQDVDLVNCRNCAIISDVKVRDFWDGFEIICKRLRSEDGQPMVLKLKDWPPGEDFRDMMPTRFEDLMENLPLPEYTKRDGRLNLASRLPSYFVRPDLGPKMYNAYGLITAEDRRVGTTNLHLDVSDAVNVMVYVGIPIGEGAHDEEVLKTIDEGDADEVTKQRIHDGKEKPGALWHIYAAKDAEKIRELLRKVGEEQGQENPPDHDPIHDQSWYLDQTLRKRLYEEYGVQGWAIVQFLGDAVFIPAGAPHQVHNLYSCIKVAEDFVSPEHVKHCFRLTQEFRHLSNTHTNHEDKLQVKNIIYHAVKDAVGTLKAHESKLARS

- IC50 (ASSAY 1): 8.78 µM
- IC50 (ASSAY 2): 13.7 µM
- IC50 (ASSAY 7): 9.79 µM
SMILES: CN(C)c1ccc(CCNC(=O)CCC(=O)N2CCC(Oc3ccc(-c4ccc(N(C)C)cc4)cn3)CC2)cc1 [JADA92, N-(4-(dimethylamino)phenethyl)-4-(4-((5-(4-(dimethylamino)phenyl)pyridin-2-yl)oxy)piperidin-1-yl)-4-oxobutanamide]

- IC50 (ASSAY 6): 11.3 µM
SMILES: CN(C)c1ccc(CCC(=O)Nc2ccc(F)cc2C(=O)N2CCC(Oc3cc(N4CCCCC4)ccn3)CC2)cc1 [KDM3-27, 3-(4-(dimethylamino)phenyl)-N-(4-fluoro-2-(4-((4-(piperidin-1-yl)pyridin-2-yl)oxy)piperidine-1-carbonyl)phenyl)propanamide]

- IC50 (ASSAY 6): 9.43 µM
- IC50 (ASSAY 7): 8.26 µM
- IC50 (ASSAY 8): 10.8 µM
SMILES: CCOC(=O)c1ccc(N)c(C(=O)N2CCC(Oc3cc(-c4ccc(N(C)C)cc4)ccn3)CC2)c1 [KDM3-31, ethyl 4-amino-3-(4-((4-(4-(dimethylamino)phenyl)pyridin-2-yl)oxy)piperidine-1-carbonyl)benzoate]

- IC50 (ASSAY 8): 49.4 µM
SMILES: CN(C)c1ccc(-c2ccc(OC3CCN(C(=O)c4cc(C(=O)O)ccc4N)CC3)nc2)cc1 [KDM3-41, 4-amino-3-(4-((5-(4-(dimethylamino)phenyl)pyridin-2-yl)oxy)piperidine-1-carbonyl)benzoic acid]

- IC50 (ASSAY 8): 11.8 µM
SMILES: CN(C)c1ccc(-c2ccc(OC3CN(C(=O)c4ccccc4[N+](=O)[O-])C3)nc2)cc1 [KDM3-42, (3-((5-(4-(dimethylamino)phenyl)pyridin-2-yl)oxy)azetidin-1-yl)(2-nitrophenyl)methanone]

- IC50 (ASSAY 1): 53 µM
SMILES: CN(C)c1ccc(CCNC(=O)CCC(=O)N2CCC(Oc3cc(-c4ccc(N(C)C)cc4)ccn3)CC2)cc1 [JADA84, N-(4-(dimethylamino)phenethyl)-4-(4-((4-(4-(dimethylamino)phenyl)pyridin-2-yl)oxy)piperidin-1-yl)-4-oxobutanamide]

- IC50 (ASSAY 7): 10.9 µM
- IC50 (ASSAY 8): 19.2 µM
SMILES: CN(C)c1ccc(-c2ccc(OC3CCN(C(=O)c4ccccc4[N+](=O)[O-])CC3)nc2)cc1 [KDM3-39, (4-((5-(4-(dimethylamino)phenyl)pyridin-2-yl)oxy)piperidin-1-yl)(2-nitrophenyl)methanone]

- IC50 (ASSAY 1): 27.9 µM
SMILES: CN(C)c1ccc(CCNC(=O)CCC(=O)N2CCC(Oc3ccc(C(F)(F)F)cn3)CC2)cc1 [JADA69, N-(4-(dimethylamino)phenethyl)-4-oxo-4-(4-((5-(trifluoromethyl)pyridin-2-yl)oxy)piperidin-1-yl)butanamide]

- IC50 (ASSAY 7): 5.65 µM
SMILES: CN(C)c1ccc(CCNC(=O)/C=C\C(=O)N2CCC(Oc3ccc(-c4ccc(N(C)C)cc4)cn3)CC2)cc1 [KDM3-38, (Z)-N-(4-(dimethylamino)phenethyl)-4-(4-((5-(4-(dimethylamino)phenyl)pyridin-2-yl)oxy)piperidin-1-yl)-4-oxobut-2-enamide]

- IC50 (ASSAY 8): 61 µM
SMILES: CN(C)c1ccc(-c2ccnc(OC3CCN(C(=O)c4cc(C(=O)O)ccc4N)CC3)c2)cc1 [KDM3-43, 4-amino-3-(4-((4-(4-(dimethylamino)phenyl)pyridin-2-yl)oxy)piperidine-1-carbonyl)benzoic acid]

- IC50 (ASSAY 3): 18.6 µM
SMILES: CN(C)c1ccc(CCCNC(=O)c2ccccc2C(=O)N2CCC(Oc3ccc(Br)cn3)CC2)cc1 [JADA133]

- IC50 (ASSAY 8): 22.4 µM
SMILES: CC(=O)Nc1ccc(C(=O)N2CCC(Oc3ccc(-c4ccc(N(C)C)cc4)cn3)CC2)c(N)c1 [KDM3-40, N-(3-amino-4-(4-((5-(4-(dimethylamino)phenyl)pyridin-2-yl)oxy)piperidine-1-carbonyl)phenyl)acetamide]

- KDM3B inhibition, verdict in words on Table 1: potent KDM3B inhibitors
- IC50 (ASSAY 5): 4.78 µM
SMILES: CN(C)c1ccc(CCC(=O)Nc2ccc(F)cc2C(=O)N2CCC(Oc3ccc(-c4ccc(N(C)C)cc4)cn3)CC2)cc1 [KDM3-23, 3-(4-(dimethylamino)phenyl)-N-(2-(4-((5-(4-(dimethylamino)phenyl)pyridin-2-yl)oxy)piperidine-1-carbonyl)-4-fluorophenyl)propanamide]

- IC50 (ASSAY 6): 74.3 µM
SMILES: CN(C)c1ccc(CCC(=O)Nc2ccc(F)cc2C(=O)N2CCC(Oc3cc(N4CCOCC4)ccn3)CC2)cc1 [KDM3-26, 3-(4-(dimethylamino)phenyl)-N-(4-fluoro-2-(4-((4-morpholinopyridin-2-yl)oxy)piperidine-1-carbonyl)phenyl)propanamide]

- IC50 (ASSAY 5): 10.9 µM
SMILES: CN(C)c1ccc(CCC(=O)Nc2ccc(F)cc2C(=O)N2CCC(Oc3ccc(-c4ccc(CN5CCOCC5)cc4)cn3)CC2)cc1 [KDM3-24]
